Counter-ions that a name gives are not always drawn. Values belong to the molecule of their own block, whether it stands above or below them. Residues, ends and D or L forms follow the SMILES beside them.
Legend:
[1] = Chromatographic hydrophobicity index (CHI/HI, ϕ0) determination by isocratic RP-HPLC at pH 7; format: physicochemical; details: for Hydrophobicity index (HI): chromatographic, ϕ0 = –log k'w/S, pH 7, 50 mM ammonium acetate in mQ H2O / MeCN (6–22%), linear regression of four log k' values per peptide, UV 254 nm, Figure 1A; for Hydrophobicity index (HI) / k' (retention factor) / log(k'): isocratic RP-HPLC; for k' (retention factor) / log(k'): pH 7, UV 254 nm; for intercept log k'w at MeCN% = 0: linear regression of log k' versus MeCN content, pH 7, 50 mM ammonium acetate, Figure S5; for ΔHI (HI(CF3S)AA – HIAA): shift versus non-fluorinated tripeptide counterpart, chromatographic HI at pH 7
Description: The hydrophobicity index (HI) shift ΔHI (HI(CF3S)AA – HIAA) is an assessment of the contribution of the CF3S substituent to the increase in local hydrophobicity. This method, developed by Valkó et al.,[27] has already been successfully applied to measure the increased local hydrophobicity of peptides containing fluorinated AAs.[6b],[28] This short peptide sequence was chosen to prevent the formation of secondary structures that could affect hydrophobicity (see the Supporting Information, Chapter 6, for details). […] It is noteworthy that the replacement of the Tyr residue with its CF3S-Tyr analogue provides a higher local enhancement of the hydrophobicity (ΔHI = HI(CF3S)Tyr – HITyrca. 12 units) compared to the Trp series (ΔHI = HI(CF3S)Trp – HITrpca. 8 units).
6. Hydrophobicity index determination
The peptides were prepared according to the SPPS general procedure.
The chromatographic hydrophobicity index (CHI) was determined according to the protocols described previously. 17 Experiments were performed at pH 7 using 50 mM ammonium acetate in mQ H2O and MeCN as mobile phase. Peptides 9-12 were dissolved in 50 mM ammonium acetate before injection (25 µL injection volume). Retention factors (k') were determined at λ = 254 nm at various MeCN concentrations ranging from 6–22% (k' = (tR–t0) / […]). Then, log k' was expressed as a function of MeCN content and linear regression was applied to four values per peptide. The intercept log k'w at MeCN% = 0 and the slopes S were extracted from the linear fit for each peptide (correlation coefficient: R2 > 0.99). The isocratic hydrophobicity index (CHI) was calcd for each peptide using the following equation: […]
RP-HPLC analysis: >95% purity; tR = 10.42 min (7% MeCN in ammonium acetate buffer (pH […]
(1 picture or pasted object on this page, not shown here)
Table of retention times (tR), dead times (t0), and calculated log k' and CHI for peptides 9-12 at pH 7: […]
Peptide 12 (22% MeCN in 50 mM ammonium acetate buffer, pH 7, 1 mL/min):
Chromatographic hydrophobicity index C HI (pH 7) of peptides 9-12 […]
Figure S5: RP-HPLC determination of the chromatographic hydrophobicity index CHI for peptides 9-12 at pH 7 by linear regression of log k' values as a function of MeCN content.

[2] = RP-HPLC retention time of EM-1 analogues (gradient); format: physicochemical; details: RP-HPLC analysis, gradient 20% → 60% MeCN + 0.1% TFA in H2O + 0.1% TFA; retention time used as support for enhanced local hydrophobicity
[3] = CF3S-tyramine versus tyramine, from pKa values in H2O/D2O 90:10
Description: Figure 1 Biophysical property evaluation.
Finally, we assessed the influence of the CF3S group on the acidity of the vicinal phenol function in a simplified tyramine model carrying an ortho CF3S.

[4] = 6% MeCN in 50 mM ammonium acetate buffer
[5] = 7% MeCN in 50 mM ammonium acetate buffer
[6] = 8% MeCN in 50 mM ammonium acetate buffer
[7] = 9% MeCN in 50 mM ammonium acetate buffer
[8] = 15% MeCN in 50 mM ammonium acetate buffer
[9] = 17% MeCN in 50 mM ammonium acetate buffer
[10] = 18% MeCN in 50 mM ammonium acetate buffer
[11] = 19% MeCN in 50 mM ammonium acetate buffer
[12] = 12% MeCN in 50 mM ammonium acetate buffer
[13] = 13% MeCN in 50 mM ammonium acetate buffer
[14] = 14% MeCN in 50 mM ammonium acetate buffer
[15] = 20% MeCN in 50 mM ammonium acetate buffer
[16] = 21% MeCN in 50 mM ammonium acetate buffer
[17] = 22% MeCN in 50 mM ammonium acetate buffer

Hydrophobicity index (HI) [1]: 11.37
k' (retention factor) [1, 4]: 6.432
log(k') [1, 4]: 0.808
k' (retention factor) [1, 5]: 4.433
log(k') [1, 5]: 0.647
k' (retention factor) [1, 6]: 3.166
log(k') [1, 6]: 0.501
k' (retention factor) [1, 7]: 2.284
log(k') [1, 7]: 0.359
intercept log k'w at MeCN% = 0 [1]: 1.6998
Molecule: CC(C)C[C@H](NC(=O)[C@H](Cc1ccc(O)cc1)NC(=O)[C@H](C)N)C(=O)O [compound 9, TFA·H2N-L-Ala-L-Tyr-L-Leu-OH] (H-Ala-Tyr-Leu-OH)

Molecule: NC(=O)[C@H](Cc1ccccc1)NC(=O)[C@H](Cc1c[nH]c2ccccc12)NC(=O)[C@@H]1CCCN1C(=O)[C@@H](N)Cc1ccc(O)c(SC(F)(F)F)c1 [(CF3S)Tyr-EM-1]
tR [2]: 11.6 min

increase of the acidity of the vicinal hydroxyl group [3]: 100 fold
Molecule: CF3S-tyramine [6e]

Molecule: NC(=O)[C@H](Cc1ccccc1)NC(=O)[C@H](Cc1c(SC(F)(F)F)[nH]c2ccccc12)NC(=O)[C@@H]1CCCN1C(=O)[C@@H](N)Cc1ccc(O)cc1 [(CF3S)Trp-EM-1]
tR [2]: 10.9 min

Molecule: NC(=O)[C@H](Cc1ccccc1)NC(=O)[C@H](Cc1c[nH]c2ccccc12)NC(=O)[C@@H]1CCCN1C(=O)[C@@H](N)Cc1ccc(O)cc1 [EM-1, endomorphin-1, reference compound]
tR [2]: 8.1 min

Hydrophobicity index (HI) [1]: 23.27
k' (retention factor) [1, 8]: 9.198
log(k') [1, 8]: 0.964
k' (retention factor) [1, 9]: 5.352
log(k') [1, 9]: 0.729
k' (retention factor) [1, 10]: 4.091
log(k') [1, 10]: 0.612
k' (retention factor) [1, 11]: 3.149
log(k') [1, 11]: 0.498
intercept log k'w at MeCN% = 0 [1]: 2.7107
ΔHI (HI(CF3S)AA – HIAA) [1]: ca. 12 units
Molecule: CC(C)C[C@H](NC(=O)[C@H](Cc1ccc(O)c(SC(F)(F)F)c1)NC(=O)[C@H](C)N)C(=O)O [compound 11, TFA·H2N-Ala-(CF3S)Tyr-Leu-OH]

Hydrophobicity index (HI) [1]: 19.13
k' (retention factor) [1, 12]: 7.397
log(k') [1, 12]: 0.869
k' (retention factor) [1, 13]: 5.507
log(k') [1, 13]: 0.741
k' (retention factor) [1, 14]: 4.188
log(k') [1, 14]: 0.622
k' (retention factor) [1, 8]: 3.191
log(k') [1, 8]: 0.504
intercept log k'w at MeCN% = 0 [1]: 2.3234
Molecule: CC(C)C[C@H](NC(=O)[C@H](Cc1c[nH]c2ccccc12)NC(=O)[C@H](C)N)C(=O)O [compound 10, TFA·H2N-Ala-Trp-Leu-OH] (H-Ala-Trp-Leu-OH)

Hydrophobicity index (HI) [1]: 27.15
k' (retention factor) [1, 11]: 9.031
log(k') [1, 11]: 0.956
k' (retention factor) [1, 15]: 6.844
log(k') [1, 15]: 0.835
k' (retention factor) [1, 16]: 5.211
log(k') [1, 16]: 0.717
k' (retention factor) [1, 17]: 4.025
log(k') [1, 17]: 0.605
intercept log k'w at MeCN% = 0 [1]: 3.1793
ΔHI (HI(CF3S)AA – HIAA) [1]: ca. 8 units
Molecule: CC(C)C[C@H](NC(=O)[C@H](Cc1c(SC(F)(F)F)[nH]c2ccccc12)NC(=O)[C@H](C)N)C(=O)O [compound 12, TFA·H2N-Ala-(CF3S)Trp-Leu-OH]
